Experimental data as given in US20200165257A1, “INHIBITORS OF PHOSPHOINOSITIDE 3-KINASE AND HISTONE DEACETYLASE FOR TREATMENT OF CANCER” (THE UNITED STATES OF AMERICA, AS REPRESENTED BY THE …, priority 2017, published 2020).

Assays:
Format in all cases: biochemical
HDAC6 = target: T1, HDAC6 (Homo sapiens, UniProt Q9UBN7); assay: HDAC Fluorescent Activity Assay; conditions: for IC50: symbols ++ / +, read-out: HDAC6 Inhibition Activity (IC50 class); for inhibition at 1 µM: symbols ** / *, read-out: HDAC6 Inhibition Activity (% Inhibition class)
T1 sequence (Q9UBN7 1-1215): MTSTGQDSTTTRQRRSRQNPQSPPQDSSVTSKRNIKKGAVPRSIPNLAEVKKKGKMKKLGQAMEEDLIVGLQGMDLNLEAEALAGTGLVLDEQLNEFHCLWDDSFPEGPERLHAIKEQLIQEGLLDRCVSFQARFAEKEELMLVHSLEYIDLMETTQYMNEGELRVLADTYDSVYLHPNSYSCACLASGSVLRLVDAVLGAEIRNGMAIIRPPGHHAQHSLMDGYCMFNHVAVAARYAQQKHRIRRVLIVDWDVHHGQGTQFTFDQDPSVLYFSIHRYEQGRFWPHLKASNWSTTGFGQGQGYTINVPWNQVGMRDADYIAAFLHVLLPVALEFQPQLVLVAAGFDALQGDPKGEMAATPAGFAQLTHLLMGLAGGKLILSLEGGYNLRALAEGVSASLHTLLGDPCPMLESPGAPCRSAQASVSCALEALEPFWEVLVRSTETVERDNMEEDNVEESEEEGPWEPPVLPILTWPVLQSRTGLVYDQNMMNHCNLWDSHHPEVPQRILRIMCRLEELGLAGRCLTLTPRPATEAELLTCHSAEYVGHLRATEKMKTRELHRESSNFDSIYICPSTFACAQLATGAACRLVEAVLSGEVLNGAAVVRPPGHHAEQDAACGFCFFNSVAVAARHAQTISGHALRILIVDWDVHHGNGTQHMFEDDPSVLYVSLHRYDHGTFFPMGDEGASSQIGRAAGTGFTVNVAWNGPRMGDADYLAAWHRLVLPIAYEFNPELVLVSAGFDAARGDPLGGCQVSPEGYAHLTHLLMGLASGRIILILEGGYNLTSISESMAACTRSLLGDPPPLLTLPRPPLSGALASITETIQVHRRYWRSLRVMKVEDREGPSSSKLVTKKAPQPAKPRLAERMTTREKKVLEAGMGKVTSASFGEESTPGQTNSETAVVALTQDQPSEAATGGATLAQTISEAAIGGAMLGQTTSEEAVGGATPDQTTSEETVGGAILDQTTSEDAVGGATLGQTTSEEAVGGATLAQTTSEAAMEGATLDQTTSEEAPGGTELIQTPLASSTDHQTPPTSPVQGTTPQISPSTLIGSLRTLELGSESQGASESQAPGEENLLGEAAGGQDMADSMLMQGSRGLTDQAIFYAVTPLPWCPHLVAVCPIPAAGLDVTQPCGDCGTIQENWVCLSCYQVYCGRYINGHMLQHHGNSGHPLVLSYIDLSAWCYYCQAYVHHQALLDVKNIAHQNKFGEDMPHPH
Method: This protocol is to determine the IC50s or percentage of inhibition values of the test compound against HDACs.
The HDAC Fluorescent Activity Assay is based on the unique Fluorogenic Substrate and Developer combination. […] First, the Fluorogenic Substrate, which comprises an acetylated lysine side chain, is incubated with a purified HDAC enzyme. Deacetylation of the substrate sensitizes the substrate so that, in the second step, treatment with the Developer produces a fluorophore.
Testing compounds were dissolved in 100% DMSO to specific concentration. […]
1. Deliver 2× enzyme in wells of reaction plate except No Enzyme control wells. Add buffer in No En wells.
2. Deliver compounds in 100% DMSO into the enzyme mixture by Acoustic technology (Echo550; nanoliter range). Spin down and pre-incubation.
3. Deliver 2× Substrate Mixture (Fluorogenic HDAC Substrate and co-factor if applicable) in all reaction wells to initiate the reaction. Spin and shake.
4. Incubate for 1-2 hr at 30° C. with seal.
5. Add Developer with Trichostatin A (or TMP269) to stop the reaction and to generate fluorescent color.
6. Fluorescence was read (excitatory, 360; emission, 460) using the EnVision Multilabel
7. Take endpoint reading for analysis after the development reaches plateau.
The percentages of enzyme activity (relative to DMSO controls) and IC50 values were calculated using the GraphPad Prism 4 program based on a sigmoidal dose-response equation.

PI3Kδ = PI3Kδ (Homo sapiens, UniProt O00329); assay: PI3Kδ kinase assay (HTRF); conditions: for IC50: symbols ++ / +, read-out: PI3Kδ Inhibition Activity (IC50 class); for inhibition at 1 µM: symbols ** / *, read-out: PI3Kδ Inhibition Activity (% Inhibition class)
Chain of PI3Kδ (O00329 whole entry): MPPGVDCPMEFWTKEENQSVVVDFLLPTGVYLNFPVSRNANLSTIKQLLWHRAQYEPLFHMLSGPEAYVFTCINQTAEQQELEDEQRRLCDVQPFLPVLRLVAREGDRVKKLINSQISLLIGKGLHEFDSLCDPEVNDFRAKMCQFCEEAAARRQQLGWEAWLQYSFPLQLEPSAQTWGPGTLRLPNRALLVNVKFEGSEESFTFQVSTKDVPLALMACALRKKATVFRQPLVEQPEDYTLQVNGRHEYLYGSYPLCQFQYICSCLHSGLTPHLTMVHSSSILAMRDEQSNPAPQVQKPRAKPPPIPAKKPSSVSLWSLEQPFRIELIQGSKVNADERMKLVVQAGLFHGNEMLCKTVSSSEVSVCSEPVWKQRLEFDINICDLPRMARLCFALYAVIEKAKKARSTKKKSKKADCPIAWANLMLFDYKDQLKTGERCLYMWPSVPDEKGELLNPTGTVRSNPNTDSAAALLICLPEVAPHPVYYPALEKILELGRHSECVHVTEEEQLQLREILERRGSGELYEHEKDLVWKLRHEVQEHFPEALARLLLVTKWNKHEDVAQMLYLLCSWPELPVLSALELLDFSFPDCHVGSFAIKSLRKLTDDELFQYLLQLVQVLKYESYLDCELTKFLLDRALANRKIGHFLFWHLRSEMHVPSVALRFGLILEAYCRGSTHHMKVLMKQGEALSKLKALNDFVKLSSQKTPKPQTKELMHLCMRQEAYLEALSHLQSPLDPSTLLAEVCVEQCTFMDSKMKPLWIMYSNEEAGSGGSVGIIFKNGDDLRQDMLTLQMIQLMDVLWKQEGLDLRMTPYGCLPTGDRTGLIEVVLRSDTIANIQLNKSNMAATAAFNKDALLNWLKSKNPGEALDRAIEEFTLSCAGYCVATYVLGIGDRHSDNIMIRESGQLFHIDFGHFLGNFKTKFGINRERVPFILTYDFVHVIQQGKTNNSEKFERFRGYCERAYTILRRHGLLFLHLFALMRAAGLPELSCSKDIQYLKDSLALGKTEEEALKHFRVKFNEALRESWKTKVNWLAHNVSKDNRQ
Chain of PI3Kδ (P27986 whole entry partner): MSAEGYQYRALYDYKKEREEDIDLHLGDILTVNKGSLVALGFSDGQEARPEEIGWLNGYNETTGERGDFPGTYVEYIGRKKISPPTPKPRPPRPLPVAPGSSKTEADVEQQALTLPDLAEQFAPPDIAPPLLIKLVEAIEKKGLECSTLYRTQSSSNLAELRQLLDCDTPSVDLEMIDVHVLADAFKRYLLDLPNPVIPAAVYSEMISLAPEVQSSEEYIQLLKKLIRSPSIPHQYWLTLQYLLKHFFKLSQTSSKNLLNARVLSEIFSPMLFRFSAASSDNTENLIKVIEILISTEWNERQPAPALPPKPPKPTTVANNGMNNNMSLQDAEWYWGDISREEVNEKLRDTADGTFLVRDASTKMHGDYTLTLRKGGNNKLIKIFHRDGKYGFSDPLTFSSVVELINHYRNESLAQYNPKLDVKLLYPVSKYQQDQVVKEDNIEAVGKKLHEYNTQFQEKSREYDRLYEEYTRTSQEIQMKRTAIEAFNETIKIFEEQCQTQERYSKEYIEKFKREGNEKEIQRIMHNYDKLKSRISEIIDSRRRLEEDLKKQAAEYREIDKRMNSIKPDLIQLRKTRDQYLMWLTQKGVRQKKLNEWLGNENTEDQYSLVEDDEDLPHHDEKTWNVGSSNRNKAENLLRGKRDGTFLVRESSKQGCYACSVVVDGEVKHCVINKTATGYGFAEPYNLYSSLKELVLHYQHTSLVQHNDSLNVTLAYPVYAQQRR
Method: (§1) The PIP3 product is detected by displacement of biotin-PIP3 from an energy transfer complex consisting of Europium labeled anti-GST monoclonal antibody, a GST-tagged pleckstrin homology (PH) domain, biotinylated PIP3 and Streptavidin-Allophycocyanin (APC). […] The PIP3 product formed by PI 3-Kinase(h) activity displaces biotin-PIP3 from the complex resulting in a loss of energy transfer, and thus, a decrease in signal.
(§2) First, the kinase reaction with PIP2 substrate is carried out in the presence of ATP, and the reaction is quenched with stop Solution, and then, finally detect by adding Detection Mixture followed by incubation.
(§3) HEPES 50 mM (pH7.0), NaN3 0.02%, BSA 0.01%, Orthovanadate 0.1 mM, 1% DMSO.
(§4) Detection buffer: HEPES 10 mM (pH7.0), BSA 0.02%, KF 0.16 M, EDTA 4 mM.
(§5) 10 μM PIP2 substrate (PI(4,5)P2)
(§6) 10 μM ATP under standard conditions
(§7) 1. Prepare substrate in freshly prepared Reaction Buffer.
(§8) 2. Deliver kinase into the substrate solution and gently mix.
(§9) 3. Deliver compounds in 100% DMSO into the kinase reaction mixture by Acoustic technology (Echo550; nanoliter range), incubate for 10 min at room temperature.
(§10) 4. Deliver ATP into the reaction mixture to initiate the reaction.
(§11) 5. Incubate for 30 min at 30° C.
(§12) 6. Quench the reaction with Stop Solution.
(§13) 7. Add Detection Mixture, and incubate for overnight.
(§14) The emission ratio is converted into μM PIP3 production based on PIP3 standard curves.
(§15) The nonlinear regression to obtain the standard curve and IC50 values are performed using Graphpad Prism software.

PI3Kγ = PI3Kγ (Homo sapiens, UniProt P48736); assay: PI3Kγ kinase assay (HTRF)
Chain of PI3Kγ (P48736 whole entry): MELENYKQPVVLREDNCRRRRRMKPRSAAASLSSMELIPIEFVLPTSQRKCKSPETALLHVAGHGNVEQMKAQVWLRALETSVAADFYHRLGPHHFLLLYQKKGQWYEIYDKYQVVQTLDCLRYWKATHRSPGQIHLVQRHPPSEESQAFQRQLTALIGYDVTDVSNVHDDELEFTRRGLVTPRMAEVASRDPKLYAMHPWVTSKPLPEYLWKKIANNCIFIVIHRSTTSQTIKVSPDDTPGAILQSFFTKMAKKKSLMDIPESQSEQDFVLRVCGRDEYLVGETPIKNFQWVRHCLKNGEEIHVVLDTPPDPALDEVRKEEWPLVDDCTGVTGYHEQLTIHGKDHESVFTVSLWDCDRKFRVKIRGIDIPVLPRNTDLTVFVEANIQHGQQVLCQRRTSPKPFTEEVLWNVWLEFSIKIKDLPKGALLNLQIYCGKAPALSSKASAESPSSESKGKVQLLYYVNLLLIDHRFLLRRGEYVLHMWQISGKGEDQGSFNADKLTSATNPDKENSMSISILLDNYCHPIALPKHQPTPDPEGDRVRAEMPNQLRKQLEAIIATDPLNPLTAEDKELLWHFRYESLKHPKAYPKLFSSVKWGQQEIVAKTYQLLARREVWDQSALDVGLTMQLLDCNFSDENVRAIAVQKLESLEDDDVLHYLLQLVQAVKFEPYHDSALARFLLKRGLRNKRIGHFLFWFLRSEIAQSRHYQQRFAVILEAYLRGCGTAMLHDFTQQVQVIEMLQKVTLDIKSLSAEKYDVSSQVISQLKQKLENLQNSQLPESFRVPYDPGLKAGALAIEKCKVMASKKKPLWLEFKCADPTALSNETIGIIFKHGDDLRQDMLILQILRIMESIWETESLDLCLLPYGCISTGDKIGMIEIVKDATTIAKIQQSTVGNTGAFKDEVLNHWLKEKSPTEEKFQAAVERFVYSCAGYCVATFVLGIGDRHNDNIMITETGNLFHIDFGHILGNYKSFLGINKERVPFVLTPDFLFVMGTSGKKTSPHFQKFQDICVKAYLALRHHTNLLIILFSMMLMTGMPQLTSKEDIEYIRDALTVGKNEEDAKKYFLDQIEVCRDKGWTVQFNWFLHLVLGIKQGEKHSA
Method: as §1, §2, §3, §4, §5, §6, §7, §8, §9, §10, §11, §12, §13, §14, §15

PI3Kβ = PI3Kβ (Homo sapiens, UniProt P42338); assay: PI3Kβ kinase assay (HTRF)
Chain of PI3Kβ (P42338 whole entry): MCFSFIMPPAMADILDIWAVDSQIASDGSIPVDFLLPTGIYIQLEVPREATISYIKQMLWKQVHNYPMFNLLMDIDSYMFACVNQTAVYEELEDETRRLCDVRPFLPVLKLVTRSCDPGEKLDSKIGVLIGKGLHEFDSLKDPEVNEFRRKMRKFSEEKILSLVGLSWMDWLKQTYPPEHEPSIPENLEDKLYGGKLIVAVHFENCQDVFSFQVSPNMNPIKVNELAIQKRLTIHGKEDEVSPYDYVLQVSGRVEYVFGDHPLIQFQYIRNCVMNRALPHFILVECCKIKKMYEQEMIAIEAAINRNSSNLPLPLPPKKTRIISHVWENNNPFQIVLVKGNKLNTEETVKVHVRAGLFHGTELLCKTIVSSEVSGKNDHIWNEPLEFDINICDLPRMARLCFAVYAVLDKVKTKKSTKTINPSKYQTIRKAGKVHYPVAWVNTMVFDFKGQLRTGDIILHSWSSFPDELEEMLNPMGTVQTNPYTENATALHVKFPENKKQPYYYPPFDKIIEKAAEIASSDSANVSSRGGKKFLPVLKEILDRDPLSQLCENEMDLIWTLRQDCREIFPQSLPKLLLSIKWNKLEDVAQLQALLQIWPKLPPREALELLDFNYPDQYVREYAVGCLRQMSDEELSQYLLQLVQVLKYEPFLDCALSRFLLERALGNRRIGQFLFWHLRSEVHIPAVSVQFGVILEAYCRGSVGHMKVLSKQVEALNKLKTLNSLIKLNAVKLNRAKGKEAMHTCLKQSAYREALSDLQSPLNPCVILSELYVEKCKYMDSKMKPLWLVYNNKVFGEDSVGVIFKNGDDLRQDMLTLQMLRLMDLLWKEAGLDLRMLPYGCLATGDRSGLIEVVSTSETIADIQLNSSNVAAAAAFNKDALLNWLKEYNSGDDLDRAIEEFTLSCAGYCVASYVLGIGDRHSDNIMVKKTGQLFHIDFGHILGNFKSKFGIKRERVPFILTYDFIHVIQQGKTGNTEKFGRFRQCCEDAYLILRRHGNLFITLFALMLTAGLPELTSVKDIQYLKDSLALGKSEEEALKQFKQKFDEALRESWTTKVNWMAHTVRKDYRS
Chain of PI3Kβ (P27986 whole entry partner): as the sequence (P27986 whole entry partner) above
Method: as §1, §2, §3, §4, §5, §6, §7, §8, §9, §10, §11, §12, §13, §14, §15

PI3Kα = PI3Kα (Homo sapiens, UniProt P42336); assay: PI3Kα kinase assay (HTRF)
Chain of PI3Kα (P42336 whole entry): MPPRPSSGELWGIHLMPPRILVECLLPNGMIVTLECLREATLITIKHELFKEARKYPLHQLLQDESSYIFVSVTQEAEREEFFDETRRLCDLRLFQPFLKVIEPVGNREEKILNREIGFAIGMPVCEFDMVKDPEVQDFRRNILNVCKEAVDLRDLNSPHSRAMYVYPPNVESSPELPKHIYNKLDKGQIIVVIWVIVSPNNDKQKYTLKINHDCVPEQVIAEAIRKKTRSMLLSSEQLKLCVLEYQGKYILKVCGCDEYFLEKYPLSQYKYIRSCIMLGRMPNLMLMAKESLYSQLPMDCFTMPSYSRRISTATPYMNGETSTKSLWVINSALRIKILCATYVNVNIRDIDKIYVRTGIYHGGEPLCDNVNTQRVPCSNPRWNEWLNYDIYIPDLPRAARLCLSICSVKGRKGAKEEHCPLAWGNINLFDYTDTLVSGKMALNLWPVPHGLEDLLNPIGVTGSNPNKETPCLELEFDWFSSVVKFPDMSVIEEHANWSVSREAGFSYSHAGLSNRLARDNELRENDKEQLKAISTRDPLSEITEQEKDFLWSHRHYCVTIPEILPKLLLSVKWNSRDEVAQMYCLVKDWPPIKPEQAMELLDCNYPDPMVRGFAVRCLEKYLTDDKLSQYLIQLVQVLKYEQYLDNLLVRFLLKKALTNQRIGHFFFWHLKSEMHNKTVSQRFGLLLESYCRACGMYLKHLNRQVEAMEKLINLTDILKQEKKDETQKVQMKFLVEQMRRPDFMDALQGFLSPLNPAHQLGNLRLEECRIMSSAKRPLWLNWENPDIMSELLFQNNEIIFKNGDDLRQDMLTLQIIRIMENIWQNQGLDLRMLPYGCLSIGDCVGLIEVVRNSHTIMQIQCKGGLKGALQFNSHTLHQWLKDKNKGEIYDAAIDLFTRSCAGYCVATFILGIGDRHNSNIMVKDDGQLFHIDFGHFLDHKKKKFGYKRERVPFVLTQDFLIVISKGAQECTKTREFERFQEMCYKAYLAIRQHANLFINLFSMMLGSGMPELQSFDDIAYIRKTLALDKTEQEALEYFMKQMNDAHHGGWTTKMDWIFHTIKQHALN
Chain of PI3Kα (P27986 whole entry partner): as the sequence (P27986 whole entry partner) above
Method: as §1, §2, §3, §4, §5, §6, §7, §8, §9, §10, §11, §12, §13, §14, §15

Row | IC50 (HDAC6) [nM] | IC50 (PI3Kδ) [nM] | inhibition at 1 µM (HDAC6) [%] | inhibition at 1 µM (PI3Kγ) [%] | inhibition at 1 µM (PI3Kβ) [%] | inhibition at 1 µM (PI3Kα) [%] | inhibition at 1 µM (PI3Kδ) [%] | SMILES
1 |  |  | < 90 | < 85 | < 85 | < 85 | > 90 | CC[C@H](Nc1ncnc2[nH]cnc12)c1nc2cccc(CNC(=O)c3cccc(B(O)O)c3)c2c(=O)n1-c1ccccc1 [XXV, (S)-(3-(((2-(1-((9H-purin-6-yl)amino)propyl)-4-oxo-3-phenyl-3,4-dihydroquinazolin-5-yl)methyl)carbamoyl)phenyl)boronic acid]
2 |  |  | < 90 | < 85 | < 85 | < 85 | < 90 | CC[C@H](Nc1ncnc2[nH]cnc12)c1nc(N2CCN(c3nc(C(=O)NO)cs3)CC2)c2ccccc2n1 [XXXII, (S)-2-(4-(2-(1-((9H-purin-6-yl)amino)propyl)quinazolin-4-yl)piperazin-1-yl)-N-hydroxythiazole-4-carboxamide]
3 |  |  | > 90 | < 85 | < 85 | < 85 | < 90 | CC[C@H](Nc1ncnc2[nH]cnc12)c1nc(-c2ccc(C(=O)NO)cc2)c2ccccc2n1 [XXXIV, (S)-4-(2-(1-((9H-purin-6-yl)amino)propyl)quinazolin-4-yl)-N-hydroxybenzamide]
4 |  |  | < 90 | < 85 | < 85 | < 85 | > 90 | CC[C@H](Nc1ncnc2[nH]cnc12)c1nc2cccc(-c3cnc(C(=O)NO)nc3)c2c(=O)n1-c1ccccc1 [XXII, (S)-5-(2-(1-((9H-purin-6-yl)amino)propyl)-4-oxo-3-phenyl-3,4-dihydroquinazolin-5-yl)-N-hydroxypyrimidine-2-carboxamide]
5 |  |  | > 90 | < 85 | < 85 | < 85 | < 90 | CC[C@H](Nc1ncnc2[nH]cnc12)c1nc(N2CCN(c3nc(C(=O)NO)co3)CC2)c2ccccc2n1 [XXXIII, (S)-2-(4-(2-(1-((9H-purin-6-yl)amino)propyl)quinazolin-4-yl)piperazin-1-yl)-N-hydroxyoxazole-4-carboxamide]
6 |  |  | < 90 | < 85 | < 85 | < 85 | > 90 | CC[C@H](Nc1ncnc2[nH]cnc12)c1nc2cccc(CC(=O)c3ccc(C(=O)Nc4ccccc4N)cc3)c2c(=O)n1-c1ccccc1 [XXIII, (S)-4-(2-(2-(1-((9H-purin-6-yl)amino)propyl)-4-oxo-3-phenyl-3,4-dihydroquinazolin-5-yl)acetyl)-N-(2-aminophenyl)benzamide]
7 | < 100 | > 100 |  |  |  |  |  | CC[C@H](Nc1ncnc2[nH]cnc12)c1nc(NCCCCCC(=O)NO)c2ccccc2n1 [XXXI, (S)-6-((2-(1-((9H-purin-6-yl)amino)propyl)quinazolin-4-yl)amino)-N-hydroxyhexanamide]
8 | > 100 |  |  |  |  |  |  | CC[C@H](Nc1ncnc2[nH]cnc12)c1nc2cccc(NCc3ccc(C(=O)N(C)O)cc3)c2c(=O)n1-c1ccccc1 [XXVII, (S)-4-(((2-(1-((9H-purin-6-yl)amino)propyl)-4-oxo-3-phenyl-3,4-dihydroquinazolin-5-yl)amino)methyl)-N-hydroxy-N-methylbenzamide]

The remaining lines, values behind:

Row | SMILES | IC50 (HDAC6) [nM] | IC50 (PI3Kδ) [nM] | inhibition at 1 µM (HDAC6) [%] | inhibition at 1 µM (PI3Kγ) [%] | inhibition at 1 µM (PI3Kβ) [%] | inhibition at 1 µM (PI3Kα) [%] | inhibition at 1 µM (PI3Kδ) [%]
9 | O=C(CCCCNc1cccc2nc(C3CC3)n(-c3ccccc3)c(=O)c12)NO [LXIII, 5-((2-cyclopropyl-4-oxo-3-phenyl-3,4-dihydroquinazolin-5-yl)amino)-N-hydroxypentanamide] | > 100 |  |  |  |  |  | 
10 | O=C(NO)c1ccc(CNc2cccc3nc(C4CC4)n(-c4ccccc4)c(=O)c23)cc1 [LXI, 4-(((2-cyclopropyl-4-oxo-3-phenyl-3,4-dihydroquinazolin-5-yl)amino)methyl)-N-hydroxybenzamide] | < 100 |  |  |  |  |  | 
11 | CC[C@H](Nc1ncnc(N)c1C(N)=O)c1nc2cccc(NCc3ccc(C(=O)NO)cn3)c2c(=O)n1-c1ccccc1 [LVII, (S)-4-amino-6-((1-(5-(((5-(hydroxycarbamoyl)pyridin-2-yl)methyl)amino)-4-oxo-3-phenyl-3,4-dihydroquinazolin-2-yl)propyl)amino)pyrimidine-5-carboxamide] | < 100 | > 100 |  |  |  |  | 
12 | CC[C@H](Nc1nc(N)nc(C)c1C#N)c1nc2cccc(N3CCC(CCC(=O)NO)CC3)c2c(=O)n1-c1ccccc1 [Compound L, (S)-3-(1-(2-(1-((2-amino-5-cyano-6-methylpyrimidin-4-yl)amino)propyl)-4-oxo-3-phenyl-3,4-dihydroquinazolin-5-yl)piperidin-4-yl)-N-hydroxypropanamide] | < 100 | < 100 |  |  |  |  | 
13 | Cc1nc2cccc(NCCCCC(=O)NO)c2c(=O)n1-c1ccccc1 [LXII, N-hydroxy-5-((2-methyl-4-oxo-3-phenyl-3,4-dihydroquinazolin-5-yl)amino)pentanamide] | > 100 |  |  |  |  |  | 
14 | CC[C@H](Nc1nc(N)nc(C)c1C#N)c1nc2cccc(C#CCCCC(=O)NO)c2c(=O)n1-c1ccccc1 [LVI, (S)-6-(2-(1-((2-amino-5-cyano-6-methylpyrimidin-4-yl)amino)propyl)-4-oxo-3-phenyl-3,4-dihydroquinazolin-5-yl)-N-hydroxyhex-5-ynamide] |  | < 100 | > 90 |  |  |  | 
15 | CC[C@H](Nc1nc(N)nc(C)c1C#N)c1nc2cccc(N(C)Cc3ccc(C(=O)NO)cc3)c2c(=O)n1-c1ccccc1 [LI, (S)-4-(((2-(1-((2-amino-5-cyano-6-methylpyrimidin-4-yl)amino)propyl)-4-oxo-3-phenyl-3,4-dihydroquinazolin-5-yl)(methyl)amino)methyl)-N-hydroxybenzamide] | < 100 | < 100 |  |  |  |  | 
